Data published in patent US11246818B2, “Peptides and compositions for use in cosmetics” (LIPOTRUE, S.L., priority 2017, dated 2022).
Residues, ends and D or L forms follow the SMILES beside them.

Key:
[1] = Trolox Equivalent Antioxidant Capacity (TEAC), ABTS Decolorization Assay; type: biochemical
Protocol: As positive controls of the assay, ascorbic acid 2-glucoside (hereinafter, AA-2G) and magnesium ascorbyl phosphate (hereinafter, MAP) were tested.
TEAC assay was used in this case. Said assay measures the antioxidant capacity of a given substance, as compared to the standard, Trolox, an analogue of Vitamin E.
Antioxidant capacity was measured using the ABTS Decolorization Assay. In this assay, the pre-formed radical monocation of 2,2′-azinobis-(3-ethylbenzothiazoline-6-sulfonic acid) (ABTS*+) was generated by oxidation of ABTS with potassium persulfate and was reduced in the presence of antioxidants (Ac-SEQ ID NO: 1-NH2, Ac-SEQ ID NO: 2-NH2, Ac-SEQ ID NO: 3-NH2 or Ferulic acid-SEQ ID NO: 2-NH2). The ABTS.+ has a blue-green color, with maximum absorptions at 650, 734 and 820 nm. Antioxidants in the sample reduce ABTS.+ suppressing this color production to a degree that is proportional to their concentrations and antioxidant capacity. Quantification of absorbance was conducted at 734 nm using a Polarstar Omega equipment (BMG Labtech).

[2] = system: Primary human epidermal keratinocytes; experiment: Protection against glycation induced by heavy metals (Advanced Glycation End products, competitive ELISA); type: cell-based; conditions: all concentrations tested (0.01, 0.05, 0.1 mg/ml), 48 hours
Protocol: Primary human epidermal keratinocytes were seeded in 96-well plates in standard culture medium and, 24 hours later, subjected to a simultaneous treatment with heavy metals (containing a mixture of Fe, Pb and Cr) and peptide Ac-SEQ ID NO: 1-NH2 for 48 hours. Levels of Advance Glycation End (AGE) products were measured by means of a competitive ELISA assay with absorbance at 450 nm.

[3] = system: Primary human epidermal keratinocytes; experiment: Protection against DNA oxidation induced by synthetic smoke (8-OHdG, competitive ELISA); type: cell-based; conditions: synthetic smoke 48 h
Protocol: (§1) Primary human epidermal keratinocytes were seeded in 96-well plates in standard culture medium and, 24 hours later, subjected to a simultaneous treatment with synthetic smoke containing selected compounds from the particle phase (for example, cadmium and nicotine) and vapour phase (for example, formaldehyde (hereinafter, FA) and ethyl carbamate) of tobacco smoke and the analysed compound (Ac-SEQ ID NO: 1-NH2) for 48 h.
After treatment, cells were lysed and DNA oxidation on cell homogenates was analysed measuring levels of 8-OHdG by means of a competitive ELISA assay with absorbance at 450 nm.

[4] = system: Primary human epidermal keratinocytes; experiment: Protection against lipoxidation induced by synthetic smoke (intracellular MDA); type: cell-based; conditions: synthetic smoke 48 h
Protocol: as §1
In addition, after treatment, lipoxidation was analysed by means of the levels of intracellular MDA, which were measured by the reaction between MDA and N-methyl-2-phenylindole (hereinafter, NMPI) rendering a stable blue chromophore with an absorption peak at 586 nm.

AhR = AhR immunostaining on human skin explants exposed to pollutants; conditions: composition of Example 8 applied topically, versus pollutants without peptide
Protocol: (§2) The protection efficacy of peptide Ac-SEQ ID NO: 1-NH2 against pollution aggression on human living explants was assessed by observation of the general morphology, immunostaining of AhR and HO-1 (both are known markers of oxidative stress as they have been related to anti-oxidative response) (Esser C., Bargen I., Weighardt H., Haarmann-Stemmann T., Krutmann J., Functions of the aryl hydrocarbon receptor in the skin, Semin Immunopathol (2013) 35:677-691; Kohen R., Nyska A., Oxidation of Biological Systems: Oxidative Stress Phenomena, Antioxidants, Redox Reactions, and Methods for Their Quantification, Toxicologic Pathology (2002) vol 30, no 6, 620-650).
(§3) Briefly, human skin explants from a person were put in culture under controlled conditions. 21 skin explants of an average diameter of 11 mm (±1 mm) were prepared and kept in survival in BEM culture medium at 37° C. in a humid, 5% CO2 atmosphere. The explants were distributed in 5 batches: explant control (Time=0), control batch, explants treated with the above-mentioned peptide, explants treated with pollutant and explants treated with pollutant and with the above-mentioned peptide. A composition containing Ac-SEQ ID NO: 1-NH2 in accordance with Example 8 was prepared and it was topically applied on days 0, 1, 3 and 4. […] Finally, image analyses and quantification were performed using Cell^D software (Olympus, Tokyo, Japan).

HO-1 = HO-1 immunostaining on human skin explants
Protocol: as §2, §3

[5] = system: Primary human epidermal melanocytes; experiment: Brightening activity: intracellular melanin content; type: cell-based; conditions: 7 days, kojic acid 10 and 50 μM
Protocol: Two concentrations of kojic acid were used as positive control.
Kojic acid was used as positive control.
Primary human epidermal melanocytes were incubated in 6-well plates for 4 days and then treated with the compounds to be analysed (Ac-SEQ ID NO: 1-NH2, Ac-SEQ ID NO: 2-NH2, Ac-SEQ ID NO: 3-NH2 or Ferulic acid-SEQ ID NO: 2-NH2) for 7 days. After treatment, cells were homogenized an intracellular melanin content was quantified by absorbance at 450 nm by Multiskan FC (Thermo Fisher Scientific, MA, USA).

[6] = lower tested concentration (0.01 mg/ml)
[7] = other two tested concentrations (0.05, 0.1 mg/ml)

Q: Which results are given for `CC(=O)N[C@@H](CC(=O)O)C(=O)N[C@@H](Cc1ccc(O)cc1)C(=O)N[C@@H](CCCCN)C(=O)N[C@H](C(N)=O)C(C)C` [Ac-SEQ ID NO: 1-NH2, Ac-Asp-Tyr-Lys-Val-NH2] (Ac-DYKV-NH2)?
A: trolox equivalents ([1]; 0.01 mg/mL): 15 µM; trolox equivalents ([1]; 0.05 mg/mL): 24 µM; trolox equivalents ([1]; 0.1 mg/mL): 94 µM; quantity of advanced glycation end-products [2]: statistically significant decrease; protection of DNA oxidation ([3]; 0.1 mg/ml): almost complete inhibition of the effects of synthetic smoke; DNA oxidation (8-OHdG) [3, 6]: slight decrease (non-statistically significant); DNA oxidation (8-OHdG) [3, 7]: higher, statistically significant, effect; lipoxidation (MDA) [4, 6]: slight decrease (non-statistically significant); lipoxidation (MDA) [4, 7]: higher, statistically significant, effect; decrease in AhR (epidermal surface occupied) (AhR): 16%; decrease in HO-1 (epidermal surface occupied) (HO-1; composition of Example 8 applied topically, exposed to pollutants, versus pollutants without peptide): 23%; increase of levels of HO-1 (HO-1; peptide in a final formulation, without exposure to pollutants, versus untreated and unexposed explants): 69%; brightening or whitening activity compared with kojic acid ([5]; all the concentrations tested (0.01, 0.05, 0.1 mg/ml)): significantly higher brightening or whitening activity; increased brightening activity relative to the activity of the two concentrations of kojic acid ([5]; all the concentrations tested): two to more than four times
